{"source": "patent EP0476645B1", "about": "“Calcium uptake inhibitors” (MERRELL DOW PHARMACEUTICALS INC., priority 1990, dated 1992)", "system": "Rat PMNL", "assay": "Measurement of intracellular calcium in fMLP-stimulated PMNL preloaded with Fura-2", "type": "cell-based", "settings": "fMLP stimulus, preincubation with compound 15 minutes at 37°C, concentrations in figure 1", "method": "Rat PMNL were obtained from exudates resulting from peritoneal injection of 6 mL of 8% sodium caseinate. Eighteen hours after injection rats were killed by carbon dioxide inhalation and the peritoneal cavity lavaged with Hank's balanced salt solution (HBSS). After concentration of the PMNL by centrifugation, contaminating erythrocytes were removed by hypotonic lysis. The PMNL were then washed twice by centrifugation (400 x g for 10 minutes) and resuspended in HBSS. Cell viability was greater than 90% by Trypan Blue exclusion and greater than 90% of the cells were PMNL by Wright-Giemsa stain.\nIntracellular calcium levels were obtained using Fura-2 as fluorescent indicator (Grynkiewicz et al., 1985). Fura-2 was loaded into PMNL as the acetoxymethyl ester (Fura-2/AM) using the method of Korchak et al., (1988). Specifically, 1 X 10⁸ PMNL/mL were incubated in HBSS with 10 µM Fura-2/AM for 10 minutes at 37°C. The cells suspension was then diluted ten fold with HBSS and further incubated for another 20 minutes. The cells were then centrifuged (400 x g for 8 minutes at 25°C) and the PMNL (1 x 10⁷ cells/mL) resuspended in HBSS containing 1% bovine serum albumin. Cells were stored at room temperature and used within 3 hours.\nIntracellular calcium level determinations were made using a dual wavelength spectrofluorometer (Photon Technology International, New Brunswick, NJ). Two mL of PMNL suspension (1 x 10⁷ cells/mL) were stirred magnetically at 37°C. Cells were preincubated with the compounds for 15 minutes at 37°C prior to activation. Where compounds were dissolved in DMSO and added directly, the DMSO never exceeded 0.3% in the final cell suspension. Total change in volume with addition of compounds or vehicle and stimuli never exceeded 3%. Intracellular calcium concentrations were calibrated by setting a maximum calcium level in the cells with the addition of 7 µM ionomycin to PMNL in HBSS containing 1% BSA. This was followed by treatment with 20 mM EGTA for 1 hour to obtain a minimum calcium level. […]"}
{"smiles": "CN(C)c1ccc(C(=O)C#Cc2ccncn2)cc1", "note": "[MDL 102,387, 1-(4-dimethylaminophenyl)-3-(4-pyrimidinyl)-2-propyne-1-one]", "values": [{"measurement": "suppression of the second wave of intracellular calcium changes", "result": "selective concentration-dependent suppression"}]}
